The results in this text go back to US20220233529A1, “COMBINATION THERAPY COMPRISING A2A/A2B INHIBITORS, PD-1/PD-L1 INHIBITORS, AND ANTI-CD73 ANTIBODIES” (Incyte Corporation, priority 2020, published 2022).

Where two headings read alike, the source gives them in different places.

Experiment [1] has as its target T1, Adenosine A2A Receptor (Homo sapiens, UniProt P29274).
T1 construct: Tag-lite label (own knowledge: SNAP-tag fusion labeled with terbium); purchased CisBio C1TT1A2A
Kind of experiment: A2A Tag-lite HTRF assay. The experiment is classed as binding. The conditions noted are these: Tag-lite Adenosine A2A labeled cells; fluorescent antagonist ligand 12.5 nM.
Description: Test compounds were first serially diluted in DMSO and 100 nL added to the plate wells before the addition of other reaction components. The final concentration of DMSO was 1%. Tag-lite® Adenosine A2A labeled cells (CisBio C1TT1A2A) were diluted 1:5 into Tag-lite buffer (CisBio LABMED) and spun 1200 g for 5 mins.

Experiment [2] addresses T2, human adenosine A2B receptor (Homo sapiens, UniProt P29275).
T2 construct: host or cells: HEK-293 (stably transfected)
T2 sequence (P29275 1-332): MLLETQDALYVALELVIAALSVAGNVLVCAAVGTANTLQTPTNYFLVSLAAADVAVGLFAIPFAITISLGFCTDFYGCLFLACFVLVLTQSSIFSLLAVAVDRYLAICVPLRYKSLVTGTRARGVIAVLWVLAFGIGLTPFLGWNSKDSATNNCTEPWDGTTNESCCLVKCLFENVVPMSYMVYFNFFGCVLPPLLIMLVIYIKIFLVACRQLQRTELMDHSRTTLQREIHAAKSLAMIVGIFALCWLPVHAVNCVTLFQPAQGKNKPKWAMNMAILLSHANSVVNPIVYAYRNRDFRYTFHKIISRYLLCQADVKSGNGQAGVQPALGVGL
Kind of experiment: Adenosine A2B Receptor cyclic AMP GS Assay. The experiment is classed as cell-based. As for the experimental part: Stably transfected HEK-293 cells expressing the human adenosine A2B receptor (Perkin Elmer) were maintained in MEM culture medium with 10% FBS and 100 μg/mL Geneticin (Life Technologies). 18 to 24 hours prior to assay, geneticin was removed from culture. The cisbio cAMP-GS Dynamic kit utilizing the FRET (Fluorescence Resonance Energy Transfer) technology was used to measure cAMP accumulation in the cells. Compounds of the present disclosure at an appropriate concentration were mixed with 10000 cells/well in white 96 well half area plates (Perkin Elmer) for 30 min at RT gently shaking. […] Detection reagents, d2-labeled cAMP (acceptor) and anti-cAMP cryptate (donor) were added to each well for 60 min at RT gently shaking.

In experiment [3] the test system is human breast adenocarcinoma tumor, MDA-MB-231. In words: Anti-tumor efficacy in humanized murine host carrying MDA-MB-231 tumor. Format: in vivo, human CD34+ reconstituted mice. The settings on record: vs Vehicle + IgG isotype, ANTIBODY Y 10 mg/kg i.p. every 5 days, retifanlimab 1 mg/mL i.p. every 5 days, Compound 9 10 mg/kg p.o. b.i.d., dosing day 7-35. The procedure: On day 7, and every 3 to 4 days subsequently, tumors were measured by Vernier caliper and tumor volume was calculated by the formula, Volume=[L (long dimension)×W^2 (short dimension)]/2. Based on these measurements, mice were randomized into 8 treatment groups of 10 mice each with an average starting tumor volume of 180 mm^3. The studied agents were formulated and administered as follows: ANTIBODY Y was diluted to a final concentration of 1 mg/mL in phosphate-buffered saline and administered by intraperitoneal (i.p.) injection at 10 mL/kg to mice for a dose of 10 mg/kg, every 5 days. Retifanlimab (Macrogenics) was diluted to 1 mg/mL and dosed i.p., every 5 days. For combination treatments, the two antibodies were co-formulated to a concentration of 1 mg/mL, each. The oral vehicle was 5% N,N-dimethylacetamide in 0.5% methyl-cellulose in 50 mM citrate buffer, pH 3.0 (all reagents obtained from Sigma) and was administered by oral gavage (p.o.) twice daily (b.i.d.).
Dosing began at day 7, and ran for 28 days, through day 35. […]
Tumor Growth Inhibition (TGI), defined as (1-treatment group volume)/control group volume)×100 was analyzed for the whole study on day 47, the last day prior to some animals leaving the study at their endpoint. […]

Where [4] appears, read: HEK-293 cells expressing human A2B, agonist NECA 12 nM, cAMP accumulation, read-out: A2B—cAMP_EC50.

T1 sequence (P29274 whole entry, the tested form may be a part): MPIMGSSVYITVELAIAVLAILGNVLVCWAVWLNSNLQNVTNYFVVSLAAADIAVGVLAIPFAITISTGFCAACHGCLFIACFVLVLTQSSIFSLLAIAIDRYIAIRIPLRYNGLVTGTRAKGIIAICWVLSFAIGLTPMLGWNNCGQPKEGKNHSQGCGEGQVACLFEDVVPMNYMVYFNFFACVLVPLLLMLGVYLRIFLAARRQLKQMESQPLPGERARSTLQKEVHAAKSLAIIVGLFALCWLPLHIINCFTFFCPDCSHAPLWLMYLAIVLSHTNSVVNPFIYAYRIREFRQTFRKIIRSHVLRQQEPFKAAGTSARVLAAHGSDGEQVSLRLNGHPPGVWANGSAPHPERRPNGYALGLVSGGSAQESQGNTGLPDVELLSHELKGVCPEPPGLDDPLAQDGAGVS

`N#Cc1cccc(-c2nc(N)n3nc(Cc4ccccn4)nc3c2-c2ccncn2)c1` [Compound 1, 3-(5-Amino-2-(pyridin-2-ylmethyl)-8-(pyrimidin-4-yl)-[1,2,4]triazolo[1,5-c]pyrimidin-7-yl)benzonitrile]: in experiment [1], the Ki was less than 10 nM.

`N#Cc1cccc(-c2nc(N)c3nn(Cc4ncccc4F)nc3c2-c2ccncn2)c1` [Compound 14, 3-(4-amino-2-((3-fluoropyridin-2-yl)methyl)-7-(pyrimidin-4-yl)-2H-[1,2,3]triazolo[4,5-c]pyridin-6-yl)benzonitrile] had a Ki in experiment [1] of less than 10 nM.

Compound `N#Cc1cccc(-c2nc(N)n3nc(C(O)c4c(F)cccc4F)nc3c2C#N)c1F` (stereo not shown) [Compound 7, 5-Amino-7-(3-cyano-2-fluorophenyl)-2-((2,6-difluorophenyl)(hydroxy)methyl)-[1,2,4]triazolo[1,5-c]pyrimidine-8-carbonitrile] came in with a Ki in experiment [1] of less than 10 nM. The EC50 in experiment [2] (setting [4]) is less than 10 nM.

“retifanlimab: humanized IgG4 monoclonal antibody that binds to human PD-1; heavy chain SEQ ID NO:2, light chain SEQ ID NO:3”: the “Percent TGI (Day 47 Tumor Growth Inhibition)” value in experiment [3] came out at 9.57%.

For the compound `Cn1nccc1-c1c(-c2cccc(C#N)c2F)nc(N)c2nn(Cc3ccccn3)nc12` [Compound 16, 3-(4-amino-7-(1-methyl-1H-pyrazol-5-yl)-2-(pyridin-2-ylmethyl)-2H-[1,2,3]triazolo[4,5-c]pyridin-6-yl)-2-fluorobenzonitrile], in experiment [1], the Ki was less than 10 nM.

In turn, `N#Cc1cccc(-c2cc3nc(C(O)c4ccccc4)nn3c(N)n2)c1` (stereo not shown) [Compound 5, 3-(5-Amino-2-(hydroxy(phenyl)methyl)-[1,2,4]triazolo[1,5-c]pyrimidin-7-yl)benzonitrile] displayed a Ki in experiment [1] of less than 10 nM. The EC50 in experiment [2] (setting [4]) is less than 10 nM.

The compound `N#Cc1cccc(-c2nc(N)n3nc(C(O)c4c(F)cccc4F)nc3c2-c2ccncn2)c1` (single isomer, unassigned) [Compound 2, 3-(5-Amino-2-((2,6-difluorophenyl)(hydroxy)methyl)-8-(pyrimidin-4-yl)-[1,2,4]triazolo[1,5-c]pyrimidin-7-yl)benzonitrile] came in with a Ki in experiment [1] of less than 10 nM.

Consider `N#Cc1cccc(-c2cc3nc(C(O)c4c(F)cccc4F)nn3c(N)n2)c1F` (stereo not shown) [Compound 6, 3-(5-Amino-2-((2,6-difluorophenyl)(hydroxy)methyl)-[1,2,4]triazolo[1,5-c]pyrimidin-7-yl)-2-fluorobenzonitrile], for which, in experiment [1], the Ki was less than 10 nM. Further, in experiment [2] (setting [4]), the EC50 was less than 10 nM.

On to `CCCCCn1c2cc(-c3cnn(Cc4ccc5c(c4)CCN(C(=O)CN(C)C)C5)c3)[nH]c2c(=O)n2c(C)nnc12` [Compound 20, 7-(1-((2-(2-(Dimethylamino)acetyl)-1,2,3,4-tetrahydroisoquinolin-6-yl)methyl)-1H-pyrazol-4-yl)-3-methyl-9-pentyl-6,9-dihydro-5H-pyrrolo[3,2-d][1,2,4]triazolo[4,3-a]pyrimidin-5-one], for which the Ki in experiment [1] is less than 10 nM.

As to `CCCCCn1c2cc(-c3cnn(Cc4cnc5ccsc5c4)c3)[nH]c2c(=O)n2c(C)nnc12` [Compound 19, 3-Methyl-9-pentyl-7-(1-(thieno[3,2-b]pyridin-6-ylmethyl)-1H-pyrazol-4-yl)-6,9-dihydro-5H-pyrrolo[3,2-d][1,2,4]triazolo[4,3-a]pyrimidin-5-one], in experiment [1], the Ki was less than 10 nM.

`N#Cc1cccc(-c2nc(N)c3nn(Cc4ncccc4F)nc3c2-c2ccncc2)c1` [Compound 15, 3-(4-amino-2-((3-fluoropyridin-2-yl)methyl)-7-(pyridin-4-yl)-2H-[1,2,3]triazolo[4,5-c]pyridin-6-yl)benzonitrile]: the Ki in experiment [1] is less than 10 nM.

In turn, `N#Cc1cccc(-c2nc(N)c3nn(Cc4ccccn4)nc3c2-c2ccncn2)c1` [Compound 13, 3-(4-amino-2-(pyridin-2-ylmethyl)-7-(pyrimidin-4-yl)-2H-[1,2,3]triazolo[4,5-c]pyridin-6-yl)benzonitrile] returned a Ki in experiment [1] of less than 10 nM.

In turn, `CCCCCn1c2cc(-c3cnn(Cc4cncc(Cl)c4)c3)[nH]c2c(=O)n2c(C)nnc12` [Compound 17, 7-(1-((5-Chloropyridin-3-yl)methyl)-1H-pyrazol-4-yl)-3-methyl-9-pentyl-6,9-dihydro-5H-pyrrolo[3,2-d][1,2,4]triazolo[4,3-a]pyrimidin-5-one] displayed a Ki in experiment [1] of less than 10 nM.

In the case of `Cc1ncoc1-c1c(-c2cccc(C#N)c2)nc(N)c2nc(C(N)c3c(F)cccc3F)nn12` (single isomer, unassigned) [Compound 11, 3-(8-amino-2-(amino(2,6-difluorophenyl)methyl)-5-(4-methyloxazol-5-yl)-[1,2,4]triazolo[1,5-a]pyrazin-6-yl)benzonitrile], the Ki in experiment [1] is less than 10 nM. Moreover, in experiment [2], the EC50 is less than 10 nM.

`CN1CCC(NCc2cccc(F)c2C(O)c2nc3cc(-c4cccc(C#N)c4F)nc(N)n3n2)C1=O` (single isomer, unassigned) [Compound 8, 3-(5-Amino-2-((2-fluoro-6-(((1-methyl-2-oxopyrrolidin-3-yl)amino)methyl)phenyl)(hydroxy)methyl)-[1,2,4]triazolo[1,5-c]pyrimidin-7-yl)-2-fluorobenzonitrile] came in with a Ki in experiment [1] of less than 10 nM.

`Cn1nc(-c2c(-c3cccc(C#N)c3)nc(N)c3nc(Cc4ccccn4)nn23)ccc1=O` [Compound 9, 3-(8-Amino-5-(1-methyl-6-oxo-1,6-dihydropyridazin-3-yl)-2-(pyridin-2-ylmethyl)-[1,2,4]triazolo[1,5-a]pyrazin-6-yl)benzonitrile]: the “Percent TGI (Day 47 Tumor Growth Inhibition)” value in experiment [3] amounted to 18.42%.

With `Cc1cccnc1COc1nc2c(-c3ccncn3)c(-c3cccc(C#N)c3)nc(N)n2n1` [Compound 4, 3-(5-Amino-2-((3-methylpyridin-2-yl)methoxy)-8-(pyrimidin-4-yl)-[1,2,4]triazolo[1,5-c]pyrimidin-7-yl)benzonitrile], in experiment [1], the Ki was less than 10 nM.

For `CCCCCn1c2cc(-c3cnn(Cc4cncc(C)c4)c3)[nH]c2c(=O)n2c(C)nnc12` [Compound 18, 3-Methyl-7-(1-((5-methylpyridin-3-yl)methyl)-1H-pyrazol-4-yl)-9-pentyl-6,9-dihydro-5H-pyrrolo[3,2-d][1,2,4]triazolo[4,3-a]pyrimidin-5-one], the Ki in experiment [1] is less than 10 nM.
